Laboratory results reported in PubChem BioAssay AID463179 (Southern Research Specialized Biocontainment Screening …, 2010).
The source made the active and inactive calls. No rule for the calls is given here.

Experiments:
[1] = system: Salmonella Typhi PhoP-promoter GFP reporter, fluorescence, 4 h; experiment: PhoP promoter GFP reporter, Salmonella typhi, confirmatory inhibitors, fluorescence, 4 h (AID 463179)
[2] = as above; details: Salmonella Typhi PhoP-promoter GFP reporter, fluorescence, 4 h; at 150 µM (top of the series)

Row | SMILES | IC50 [1] [µM] | inhibition [2]
1 | Clc1ccc(C2Sc3ccccc3N=C3c4ccccc4CC32)cc1 (centres undefined) | 6.26 | –
2 | O=C1C2=C(Nc3ccccc3SC2c2cccc(Br)c2)c2ccccc21 (centres undefined) | – | -12.2% (inactive)
3 | O=C1C2=C(Nc3ccccc3SC2c2ccc(Cl)cc2)c2ccccc21 (centres undefined) | – | 18% (inactive)
4 | Cc1ccc(C2Sc3ccccc3N=C3c4ccccc4CC32)cc1 (centres undefined) | 2.67 | –
